Laboratory results published in PubChem BioAssay AID330 (DTP/NCI, 2004).
Several values for one entry are separate records, joined by “and”; a condition that tells them apart may be missing. Equal entries are not always repeated. Inconclusive results and toxic doses are left out. Rule for the calls: active = survival T/C of 150% or more; inactive = T/C below 125% in these data.

System: P388 leukemia ip, CD2F1 mice, survival T/C
Test: NCI In Vivo Anticancer Drug Screen. Data for tumor model P388 Leukemia (intraperitoneal) in CD2F1 (CDF1) mice
Settings: endpoint: median survival time, higher = longer survival
How it was run: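 Mice carrying the transplanted tumor received test compound or vehicle. Survival was recorded in each group, and the value is the treated-group measurement divided by that of the vehicle-treated control group.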

[1] = dose: 50.0 mg/kg/injection, schedule: Q01DX009 (ip), vehicle: saline
[2] = dose: 50.0 mg/kg/injection, schedule: Q01DX005 (ip), vehicle: saline with Tween-80
[3] = dose: 100.0 mg/kg/injection, schedule: Q01DX005 (ip), vehicle: saline with Tween-80
[4] = dose: 50.0 mg/kg/injection, schedule: Q01DX005 (ip), vehicle: Klucel (hydroxypropylcellulose) (HPC)
[5] = dose: 100.0 mg/kg/injection, schedule: Q01DX005 (ip), vehicle: Klucel (hydroxypropylcellulose) (HPC)
[6] = dose: 200.0 mg/kg/injection, schedule: Q01DX005 (ip), vehicle: Klucel (hydroxypropylcellulose) (HPC)
[7] = dose: 50.0 mg/kg/injection, schedule: Q01DX009 (ip), vehicle: saline with Tween-80
[8] = dose: 100.0 mg/kg/injection, schedule: Q01DX009 (ip), vehicle: saline with Tween-80
[9] = dose: 200.0 mg/kg/injection, schedule: Q01DX009 (ip), vehicle: saline with Tween-80

Measured: T/C

Cc1nsnc1CCO
inactive: dose: 100.0 mg/kg/injection, schedule: Q04DX002 (ip), vehicle: saline 102 % of control | dose: 200.0 mg/kg/injection, schedule: Q04DX002 (ip), vehicle: saline 104 % of control | dose: 400.0 mg/kg/injection, schedule: Q04DX002 (ip), vehicle: saline 99 % of control

CCNC(=O)Nc1ccc(Cl)cn1
inactive: [1] 102 % of control | dose: 100.0 mg/kg/injection, schedule: Q01DX009 (ip), vehicle: saline 105 % of control | dose: 200.0 mg/kg/injection, schedule: Q01DX009 (ip), vehicle: saline 105 % of control

Nc1ccc2nc3ccc(=O)cc-3n(-c3ccccc3)c2c1
inactive: dose: 0.5 mg/kg/injection, schedule: Q01DX009 (ip), vehicle: saline 115 % of control | dose: 1.0 mg/kg/injection, schedule: Q01DX009 (ip), vehicle: saline 124 % of control | dose: 1.25 mg/kg/injection, schedule: Q01DX009 (ip), vehicle: saline 102 % of control | dose: 2.5 mg/kg/injection, schedule: Q01DX009 (ip), vehicle: saline 104 % of control | dose: 5.0 mg/kg/injection, schedule: Q01DX009 (ip), vehicle: saline 105 % of control | dose: 20.0 mg/kg/injection, schedule: Q01DX009 (ip), vehicle: saline 119 % of control | dose: 40.0 mg/kg/injection, schedule: Q01DX009 (ip), vehicle: saline 114 % of control

CC(=O)OC1CC2C(C)(C)OC3CC(=O)OCC32C2CCC3(C)C(=CCC3c3ccoc3)C12C (configuration not stated)
inactive: dose: 0.5 mg/kg/injection, schedule: Q01DX005 (ip), vehicle: saline + alcohol 108 % of control | dose: 1.0 mg/kg/injection, schedule: Q01DX005 (ip), vehicle: saline + alcohol 98 % of control | dose: 2.0 mg/kg/injection, schedule: Q01DX005 (ip), vehicle: saline + alcohol 106 % of control | dose: 4.0 mg/kg/injection, schedule: Q01DX005 (ip), vehicle: saline + alcohol 111 % of control | dose: 8.0 mg/kg/injection, schedule: Q01DX005 (ip), vehicle: saline + alcohol 108 % of control

C[O+]=c1ccc2ccc(-c3ccccc3)sc-2c1
inactive: dose: 60.0 mg/kg/injection, schedule: Q01DX005 (ip), vehicle: Klucel (hydroxypropylcellulose) (HPC) 106 % of control | dose: 120.0 mg/kg/injection, schedule: Q01DX005 (ip), vehicle: Klucel (hydroxypropylcellulose) (HPC) 105 % of control

Cc1ccc(C2(O)CC3CCC(C2)N3C)cc1 (configuration not stated)
inactive: dose: 100.0 mg/kg/injection, schedule: Q01DX001 (ip), vehicle: Klucel (hydroxypropylcellulose) (HPC) 103 % of control | dose: 200.0 mg/kg/injection, schedule: Q01DX001 (ip), vehicle: Klucel (hydroxypropylcellulose) (HPC) 110 % of control | dose: 400.0 mg/kg/injection, schedule: Q01DX001 (ip), vehicle: Klucel (hydroxypropylcellulose) (HPC) 101 % of control

c1ccc(P2(c3ccccc3)=NSN=S=N2)cc1
inactive: [2] 107 % of control | [3] 116 % of control | dose: 200.0 mg/kg/injection, schedule: Q01DX005 (ip), vehicle: saline with Tween-80 108 % of control

CN(CCC(=O)c1ccc(Cl)cc1)CCC(=O)c1ccc(Cl)cc1
inactive: [4] 117 % of control | [5] 108 % of control | [6] 104 % of control

Cc1c2ccncc2c(C)c2c1[nH]c1cc(O)ccc12
inactive: dose: 3.13 mg/kg/injection, schedule: Q04DX003 (ip), vehicle: distilled water + Tween-80 104 % of control | dose: 6.25 mg/kg/injection, schedule: Q04DX003 (ip), vehicle: distilled water + Tween-80 108 % of control and 111 % of control | dose: 12.5 mg/kg/injection, schedule: Q04DX003 (ip), vehicle: distilled water + Tween-80 122 % of control

Cc1ccc(C[n+]2cc3ccccc3cc2/C=N\O)cc1
inactive: [2] 98 % of control | [3] 109 % of control

[CH3][Sn]([CH3])([O]C(=O)c1ccc2c(c1)OCO2)[O]C(=O)c1ccc2c(c1)OCO2
inactive: [4] 112 % of control | [5] 112 % of control | [6] 109 % of control

O=[N+]([O-])c1cccc(CNc2ccccc2)c1
inactive: dose: 100.0 mg/kg/injection, schedule: Q04DX003 (ip), vehicle: Klucel (hydroxypropylcellulose) (HPC) 101 % of control | dose: 200.0 mg/kg/injection, schedule: Q04DX003 (ip), vehicle: Klucel (hydroxypropylcellulose) (HPC) 101 % of control | dose: 400.0 mg/kg/injection, schedule: Q04DX003 (ip), vehicle: Klucel (hydroxypropylcellulose) (HPC) 109 % of control

O=C(O)CCCCCCCCCc1ccccc1
inactive: dose: 12.5 mg/kg/injection, schedule: Q01DX009 (ip), vehicle: saline with Tween-80 100 % of control | dose: 25.0 mg/kg/injection, schedule: Q01DX009 (ip), vehicle: saline with Tween-80 97 % of control | [7] 95 % of control | [1] 97 % of control

CC(=O)NS(=O)(=O)c1ccc(N=NC2C(=O)N(C(=O)c3ccc(Cl)cc3)N=C2C)cc1 (configuration not stated)
inactive: dose: 1.5 mg/kg/injection, schedule: Q01DX001 (ip), vehicle: saline with Tween-80 100 % of control | dose: 3.0 mg/kg/injection, schedule: Q01DX001 (ip), vehicle: saline with Tween-80 104 % of control | dose: 6.0 mg/kg/injection, schedule: Q01DX001 (ip), vehicle: saline with Tween-80 107 % of control | dose: 12.0 mg/kg/injection, schedule: Q01DX001 (ip), vehicle: saline with Tween-80 100 % of control | dose: 12.5 mg/kg/injection, schedule: Q01DX001 (ip), vehicle: saline with Tween-80 94 % of control

CC(=O)OCc1nc2ncnc(N)c2[nH]1
inactive: dose: 12.5 mg/kg/injection, schedule: Q01DX005 (ip), vehicle: distilled water + Tween-80 99 % of control | dose: 25.0 mg/kg/injection, schedule: Q01DX005 (ip), vehicle: distilled water + Tween-80 103 % of control | dose: 50.0 mg/kg/injection, schedule: Q01DX005 (ip), vehicle: distilled water + Tween-80 108 % of control | dose: 100.0 mg/kg/injection, schedule: Q01DX005 (ip), vehicle: distilled water + Tween-80 97 % of control | dose: 200.0 mg/kg/injection, schedule: Q01DX005 (ip), vehicle: distilled water + Tween-80 97 % of control

CCCCC(SC(CC)(C(C)=O)c1ccccc1)C(N)=O (configuration not stated)
inactive: [7] 91 % of control | [8] 90 % of control | [9] 88 % of control | dose: 400.0 mg/kg/injection, schedule: Q01DX009 (ip), vehicle: saline with Tween-80 90 % of control

COc1ccc2c(c1OC)N(C)CC1=C2OC(C)(C)C2C1CC1(C)CC2c2c(c3ccc(OC)c(OC)c3n(C)c2=O)O1 (configuration not stated)
inactive: dose: 12.5 mg/kg/injection, schedule: Q01DX005 (ip), vehicle: Klucel (hydroxypropylcellulose) (HPC) 90 % of control | dose: 25.0 mg/kg/injection, schedule: Q01DX005 (ip), vehicle: Klucel (hydroxypropylcellulose) (HPC) 93 % of control | [4] 90 % of control

CCOCCC(N=NC(=S)NNC)c1ccccc1 (configuration not stated)
inactive: dose: 100.0 mg/kg/injection, schedule: Q01DX001 (ip), vehicle: saline 100 % of control | dose: 200.0 mg/kg/injection, schedule: Q01DX001 (ip), vehicle: saline 94 % of control | dose: 400.0 mg/kg/injection, schedule: Q01DX001 (ip), vehicle: saline 93 % of control

CS(=O)CCCC#N (configuration not stated)
inactive: dose: 18.75 mg/kg/injection, schedule: Q01DX009 (ip), vehicle: saline with Tween-80 115 % of control | dose: 37.5 mg/kg/injection, schedule: Q01DX009 (ip), vehicle: saline with Tween-80 100 % of control | dose: 75.0 mg/kg/injection, schedule: Q01DX009 (ip), vehicle: saline with Tween-80 110 % of control | dose: 150.0 mg/kg/injection, schedule: Q01DX009 (ip), vehicle: saline with Tween-80 100 % of control | dose: 300.0 mg/kg/injection, schedule: Q01DX009 (ip), vehicle: saline with Tween-80 105 % of control

O=C(CNC(c1ccccc1)(c1ccccc1)c1ccccc1)OC(c1ccccc1)c1ccccc1
inactive: [7] 104 % of control | [8] 118 % of control | [9] 90 % of control
